For 13 compounds, IC50 results are on record in patent US6596772B1, “Phosphate mimics and methods of treatment using phosphatase inhibitors” (Sugen, Inc., priority 1999, dated 2003).

What all share (assay): PTP IC50 assay, pNPP or FDP as substrate
Format in all cases: biochemical

For one test, the target named is T1, PTP 1B (Homo sapiens, UniProt P18031).
T1 construct: made in house; host or cells: Sf-9 insect cells (pFastBac-G2T)
T1 sequence (P18031 1-435): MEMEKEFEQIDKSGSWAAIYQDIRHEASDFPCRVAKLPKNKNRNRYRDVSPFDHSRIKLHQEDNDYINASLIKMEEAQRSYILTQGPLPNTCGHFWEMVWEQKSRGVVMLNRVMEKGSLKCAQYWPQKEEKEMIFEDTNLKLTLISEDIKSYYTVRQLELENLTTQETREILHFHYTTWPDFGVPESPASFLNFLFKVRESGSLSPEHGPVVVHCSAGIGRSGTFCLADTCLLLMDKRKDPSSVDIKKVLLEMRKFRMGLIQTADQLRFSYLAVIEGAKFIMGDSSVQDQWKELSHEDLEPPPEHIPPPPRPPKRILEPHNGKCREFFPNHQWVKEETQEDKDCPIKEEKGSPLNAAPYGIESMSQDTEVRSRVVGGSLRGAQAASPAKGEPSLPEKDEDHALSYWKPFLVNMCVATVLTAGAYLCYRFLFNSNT
To be noted: pNPP or FDP as substrate, 25° C.; read-out: PTP IC50 1B. On the procedure:
(§1) The following in vitro assay procedure is preferred to determine the level of activity and effect of the different compounds of the present invention on one or more of the PTPs. Similar assays can be designed along the same lines for any PTP using techniques well known in the art.
(§2) The catalytic assays described herein are performed in a 96-well format. The general procedure begins with the determination of PTP optimal pH using a three-component buffer system that minimizes ionic strength variations across a wide range of buffer pH. Next, the Michaelis-Menten constant, or Km, is determined for each specific substrate-PTP system. This Km value is subsequently used as the substrate reaction concentration for compound screening. Finally, the test PTP is exposed to varying concentrations of compound for fifteen minutes and allowed to react with substrate for ten minutes. The results are plotted as percent inhibition versus compound concentration and the IC50 interpolated from the plot.
(§3) All assays were performed using pNPP or FDP as substrate. The optimum pH was determined for each PTP used.
(§4) PTPase activity was assayed at 25° C. in a 100-μl reaction mixture containing an appropriate concentration of pNPP or FDP as substrate. The reaction was initiated by addition of the PTP and quenched after 10 min by addition of 50 μl of IN NaOH. The non-enzymatic hydrolysis of the substrate was corrected by measuring the control without the addition of the enzyme. The amount of p-nitrophenol produced was determined from the absorbance at 410 nm. To determine the kinetic parameter, Km, the initial velocities were measured at various substrate concentrations and the data were fitted to the Michaelis equation where velocity=(Vmax*[S])/(Km+[S]), and [S]=substrate reaction concentration.
(§5) The effect of the compounds on PTP was evaluated at 25° C. using pNPP or FDP as substrate. PTP was pre-incubated for fifteen minutes with various concentrations of compound. Substrate was then added at a fixed concentration (usually equal to the Km previously calculated). After 10 minutes, NaOH was added to stop the reaction. The hydrolysis of pNPP was followed at 410 nm on the Biotek Powerwave 200 microplate scanning spectrophotometer. The percent inhibition was calculated as follows: Percent Inhibition=[(control signal−compound signal)/control signal] ×100%. The IC50 was then determined by interpolation of a percent inhibition versus compound concentration plot.
(§6) Plasmids designed for bacterial GST-PTP fusion protein expression were derived by insertion of PCR-generated human PTP fragments into pGEX vectors (Pharmacia Biotech). Several of these constructs were then used to subclone phosphatases into pFastBac-1for expression in Sf-9 insect cells. Oligonucleotides used for the initial amplification of PTP genes are shown below. The cDNAs were prepared using the Gilbo BRL superscript preamplification system on RNAs purchased from Clontech.
The PTP1b cDNA was amplified from human placenta single strand cDNA (Clontech RNA) using the following oligonucleotides: 5′oligo: 5′-[…] (SEQ ID NO: 4) 3′oligo: 5′-[…] (SEQ ID NO: 5) It was subsequently ligated into pFasBac G2TBamH1Xba-1 sites.

Another test has as its target T2, PTP BETA (Homo sapiens, UniProt P23467).
T2 construct: The catalytic domain was amplified using the following oligonucleotides; made in house; host or cells: E. coli BL-21 (pGEX 6P-1)
The conditions noted are these: pNPP or FDP as substrate, 25° C.; read-out: PTP IC50 Beta. On the procedure:
as §1, §2, §3, §4, §5, §6
The PTP Beta cDNA used has been described earlier (Levy et al., 1993, J. Biol. Chem, 268:10573-10581). The catalytic domain was amplified using the following oligonucleotides: 5′oligo: 5′-[…]-3′ (SEQ ID NO: 16) 3′oligo: 5′-[…]-3′ (SEQ ID NO: 17) and subsequently cloned into the Eco RI/Xho I sites of pGEX 6P-1.

Another test has as its target T3, PTP SIGMA (Homo sapiens, UniProt Q13332).
T3 construct: made in house; host or cells: E. coli BL-21 (pGEX 6P-1)
T3 sequence (Q13332 1320-1660 limits assumed): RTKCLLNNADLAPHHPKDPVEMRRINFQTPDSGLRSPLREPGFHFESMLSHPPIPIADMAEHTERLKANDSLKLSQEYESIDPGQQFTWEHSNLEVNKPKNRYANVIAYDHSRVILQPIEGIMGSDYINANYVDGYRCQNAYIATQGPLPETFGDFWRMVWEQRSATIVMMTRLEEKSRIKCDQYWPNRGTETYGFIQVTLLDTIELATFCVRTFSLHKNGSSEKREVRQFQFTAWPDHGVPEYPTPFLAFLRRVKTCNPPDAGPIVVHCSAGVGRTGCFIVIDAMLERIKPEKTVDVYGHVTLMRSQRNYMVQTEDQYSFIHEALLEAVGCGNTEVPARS
To be noted: pNPP or FDP as substrate, 25° C.; read-out: PTP IC50 Sigma. The method, then:
as §1, §2, §3, §4, §5, §6
The PTP Sigma cDNA was amplified from human brain single strand cDNA (Clontech RNA) using the following oligonucleotides: 5′oligo: 5′-[…]-3′ (SEQ ID NO: 12) 3′oligo: 5′-[…]-3′ (SEQ ID NO: 13) and subsequently ligated into pGex 6P-1 Eco RI/Xho I sites.

Another test addresses T4, PTP MU (Homo sapiens, UniProt P28827).
T4 construct: made in house; host or cells: E. coli BL-21 (pGEX 6P-1)
The conditions noted are these: pNPP or FDP as substrate, 25° C.; read-out: PTP IC50 Mu. On the procedure: as §1, §2, §3, §4, §5, §6
The PTP Mu cDNA was amplified from a human lung cDNA library (Clontech) using the following oligonucleotides; 5′oligo: 5′-[…]-3′ (SEQ ID NO: 18) 3′oligo: 5′-[…]-3′ (SEQ ID NO: 19) It was subsequently ligated into the Eco RI/Xho I sites of pGEX 6P-1.

T2 sequence (P23467 1653-1997): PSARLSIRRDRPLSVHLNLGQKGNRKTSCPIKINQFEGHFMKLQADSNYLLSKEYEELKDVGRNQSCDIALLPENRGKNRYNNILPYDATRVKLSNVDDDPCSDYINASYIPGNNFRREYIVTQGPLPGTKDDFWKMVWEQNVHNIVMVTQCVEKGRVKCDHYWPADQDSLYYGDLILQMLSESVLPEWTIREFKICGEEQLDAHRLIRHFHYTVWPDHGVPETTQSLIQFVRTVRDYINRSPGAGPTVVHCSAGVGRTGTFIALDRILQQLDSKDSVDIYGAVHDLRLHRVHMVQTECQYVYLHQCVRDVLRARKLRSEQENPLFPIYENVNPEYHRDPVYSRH
T4 sequence (P28827 831-1186 limits assumed): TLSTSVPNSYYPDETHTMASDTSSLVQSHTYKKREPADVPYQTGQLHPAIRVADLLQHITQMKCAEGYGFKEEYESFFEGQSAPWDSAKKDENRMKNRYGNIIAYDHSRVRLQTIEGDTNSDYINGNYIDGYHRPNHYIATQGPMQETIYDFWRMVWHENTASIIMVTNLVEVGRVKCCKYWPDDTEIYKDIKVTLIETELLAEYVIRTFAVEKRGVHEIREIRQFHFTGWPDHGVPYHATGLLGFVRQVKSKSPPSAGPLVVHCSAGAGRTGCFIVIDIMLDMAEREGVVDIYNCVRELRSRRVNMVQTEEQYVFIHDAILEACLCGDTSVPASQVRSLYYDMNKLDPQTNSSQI

For `O=C(O)c1ccc(Oc2cccc(Oc3ccc(S(=O)(=O)C(F)(F)F)cc3[N+](=O)[O-])c2)cc1` [Example 15, 4-[3-(2-Nitro-4-trifluoromethanesulfonyl-phenoxy)-phenoxy]-benzoic acid], the concentration for half-maximal inhibition (IC50) (in general, the concentration that inhibits the measured activity by half) stood at 15.7 µM on PTP 1B, 10.3 µM on PTP BETA, 11.7 µM at PTP SIGMA and 15.5 µM at PTP MU.
For `COC(=O)c1cc(Oc2ccc(S(=O)(=O)C(F)(F)F)cc2[N+](=O)[O-])n(-c2cc(C(F)(F)F)cc(C(F)(F)F)c2)n1` [Example 16, 1-(3,5-Bis-trifluoromethyl-phenyl)-5-(2-nitro-4-trifluoromethanesulfonyl-phenoxy)-1H-pyrazole-3-carboxylic acid methyl ester] the same measures were > 100 µM, 9.6 µM, 29.4 µM and > 100 µM.
Take `CCOC(=O)COc1ccc(S(=O)(=O)c2ccc(Oc3ccc(S(=O)(=O)C(F)(F)F)cc3[N+](=O)[O-])cc2)cc1` [Example 17, {4-[4-(2-Nitro-4-trifluoromethanesulfonyl-phenoxy)-benzenesulfonyl]-phenoxy}-acetic acid ethyl ester]: the IC50 on PTP 1B was > 100 µM; on PTP BETA, 26 µM; at PTP SIGMA, > 100 µM; at PTP MU it was > 100 µM.
Take `O=C(O)c1ccc(Oc2cccc(Oc3ccc(S(=O)(=O)C(F)(F)F)cc3)c2)cc1` [Example 18, 4-[3-(4-Trifluoromethanesulfonyl-phenoxy)-phenoxy]-benzoic acid]: the half-inhibitory concentration (IC50) on PTP 1B is 16.4 µM; at PTP BETA, 13.5 µM; at PTP SIGMA it was 22.1 µM; at PTP MU, 21.6 µM.
For `CCOC(=O)COc1ccc(S(=O)(=O)c2ccc(Oc3ccc(S(=O)(=O)C(F)(F)F)cc3)cc2)cc1` [Example 19, {4-[4-(4-trifluoromethanesulfonyl-phenoxy)-benzenesulfonyl]-phenoxy}-acetic acid ethyl ester] the same measures were 42.5 µM, 1.9 µM, 93.3 µM and 69.5 µM.
As for `O=C(Cc1ccccc1CC(=O)Nc1cccc(S(=O)(=O)C(F)(F)F)c1)Nc1cccc(S(=O)(=O)C(F)(F)F)c1` [Example 20, N-(3-Trifluoromethanesulfonyl-phenyl)-2-{2-[(3-trifluoromethanesulfonyl-phenylcarbamoyl)-methyl]-phenyl}-acetamide], the half-maximal inhibitory concentration (IC50) was 43.3 µM at PTP 1B, 8.7 µM on PTP BETA, 22.9 µM at PTP SIGMA and 37.9 µM on PTP MU.
For `O=C(Cc1cccc(CC(=O)Nc2cccc(S(=O)(=O)C(F)(F)F)c2)c1)Nc1cccc(S(=O)(=O)C(F)(F)F)c1` [Example 21, N-(3-Trifluoromethanesulfonyl-phenyl)-2-{3-[(3-trifluoromethanesulfonyl-phenylcarbamoyl)-methyl]-phenyl}-acetamide] the same measures were 35.3 µM, 3.1 µM, 21.1 µM and 47.7 µM.
Take `O=C(Cc1ccc(CC(=O)Nc2cccc(S(=O)(=O)C(F)(F)F)c2)cc1)Nc1cccc(S(=O)(=O)C(F)(F)F)c1` [Example 22, N-(3-Trifluoromethanesulfonyl-phenyl)-2-{4-[(3-trifluoromethanesulfonyl-phenylcarbamoyl)-methyl]-phenyl}-acetamide]: the concentration for half-maximal inhibition (IC50) on PTP 1B was found to be 25.7 µM; at PTP BETA, 1.4 µM; at PTP SIGMA, 7.8 µM; at PTP MU, 17.4 µM.
With `O=[N+]([O-])c1cc(S(=O)(=O)C(F)(F)F)ccc1Oc1cc(CN2CCOCC2)c(Oc2ccc(S(=O)(=O)C(F)(F)F)cc2[N+](=O)[O-])cc1CN1CCOCC1` [Example 23, 3,6-Bis-(morpholin-4-ylmethyl)-2,5-bis-(2-nitro-4-trifluoromethanesulfonyl-phenoxy)-benzene], the IC50 turned out to be 11.6 µM at PTP 1B, 1.1 µM at PTP BETA, 8.5 µM at PTP SIGMA and 18.3 µM at PTP MU.
On to `CN(C)CC(COc1ccc(S(=O)(=O)C(F)(F)F)cc1[N+](=O)[O-])Oc1ccc(S(=O)(=O)C(F)(F)F)cc1[N+](=O)[O-]` (stereo not shown) [Example 24, [2,3-Bis-(2-nitro-4-trifluoromethanesulfonyl-phenoxy)-propyl]-dimethyl-amine], for which the half-inhibitory concentration (IC50) is > 100 µM at PTP 1B, 5.1 µM on PTP BETA, 53.5 µM on PTP SIGMA and > 100 µM at PTP MU.
With `CCNc1ccc(S(=O)(=O)C(F)(F)F)cc1NC(=O)Cc1ccc(S(C)(=O)=O)cc1` [Example 25, N-(2-Ethylamino-5-trifluoromethanesulfonyl-phenyl)-2-(4-methanesulfonyl-phenyl)-acetamide], the IC50 was 16.4 µM at PTP 1B, 0.35 µM at PTP BETA, > 71 µM on PTP SIGMA and 48.8 µM on PTP MU.
Regarding `CCOC(=O)c1cc(Oc2ccc(S(=O)(=O)C(F)(F)F)cc2[N+](=O)[O-])c(C(=O)OCC)cc1O` [Example 26, 2-Hydroxy-5-(2-nitro-4-trifluoromethanesulfonyl-phenoxy)-terephthalic acid diethyl ester], the half-maximal inhibitory concentration (IC50) was > 100 µM on PTP 1B, 2.9 µM on PTP BETA, 69 µM at PTP SIGMA and 65 µM on PTP MU.
For the compound `O=C(O)Cc1ccccc1CC(=O)Nc1cccc(S(=O)(=O)C(F)(F)F)c1` [Example 27, {2-[(3-Trifluoromethanesulfonyl-phenylcarbamoyl)-methyl]-phenyl}-acetic acid], the half-maximal inhibitory concentration (IC50) on PTP 1B was > 100 µM; at PTP BETA it was 61.4 µM; at PTP SIGMA, > 100 µM; on PTP MU, > 100 µM.
